{"source": "paper PMC6268373", "about": "“Systematic Study of the Physicochemical Properties of a Homologous Series of Aminobisphosphonates” (Molecules, 2012)", "key": {"[1]": {"test": "Thermal analysis (TG/DTA and TGA 7)", "type": "physicochemical", "settings": "for Td / Td (decomposition onset): air; for Td: 5 °C/min; for Temp. range of 1st cleavage: lower limit taken at 0.5 wt-%; for Td (decomposition onset): average from both instruments, heating rate 5 °C/min", "protocol": "Thermal decomposition paths with evaluation of crystal water content were obtained parallel with two instruments; Perkin Elmer STA 6000 thermogravimetric TG/DTA and Perkin Elmer TGA 7 analyzers (Perkin Elmer, Massachusetts, USA). Measurements were carried out in an open platinum crucible (the higher 5 mm crucible was used in TG/DTA and a shallower 2 mm crucible in TGA 7) under air atmosphere (flow rate of 45 mL/min) with a heating rate of 5 °C/min over the temperature range of 25−700 °C. The temperature calibration of STA 6000 was made using melting points of indium (156.60 °C) and zinc (419.5 °C) standards. For TGA 7 magnetic Curie-point calibration technique (Alumel, Ni, Perkalloy, Fe) was used. The weight balance of both instruments was calibrated by measuring a standard weight of 50 mg at room temperature. The sample weights used in the measurements were about 4–8 mg, and for each bisphosphonate, it was attempted to keep the same on both instruments. The melting/dehydration/decomposition behavior of the compounds was also visually monitored using a Stuart Scientific SMP3 melting point apparatus."}, "[2]": {"test": "Effect of temperature on aqueous solubility", "settings": "Milli-Q water, unbuffered, thermodynamic from solid", "experimental": "(§1) A Jasco V-530 UV/Vis spectrophotometer was used for phosphorus determination at 880 nm wavelength. Filtered liquid samples were diluted to the appropriate volume with Milli-Q water and were digested with the persulphate oxidation technique in acidic medium at elevated temperature to convert aminobisphosponates to orthophosphate. In an acidic medium, ammonium molybdate and antimony potassium tartrate react with orthophosphate to form a phosphomolybdic acid that is reduced to intensively colored molybdenum blue by ascorbic acid [30].\n(§2) The mixture containing an excess of the studied compound was first agitated for predetermined time with magnetic stirrer and before taking the sample mixture was allowed to stand for 24 h without stirring. The sample (about 5 mL) was taken from liquid above the solids, pH was measured and the sample was filtered through 0.2 µm membrane filter to remove any possible insoluble particles. The phosphorus concentration in the filtered sample solution was determined by using the spectrophotometric method described above."}, "[3]": {"test": "pKa determination with Sirius instrument (PCA200)"}, "[4]": {"test": "Aqueous solubility of saturated solution at 21 °C (phosphorus determination by molybdenum blue spectrophotometry)", "settings": "21 °C; for solubility at 30 min: Milli-Q water, unbuffered, water, thermodynamic from solid; for pH of saturated solution: saturated aqueous solution, agitation time 30 min", "experimental": "as §1, §2"}, "[5]": {"test": "Protonation constants by (traditional) potentiometric titration (TPT), SUPERQUAD", "settings": "0.1 M NaNO3, 25 °C; for pKa: aqueous 0.1 M NaNO3, log K, TPT; for logβx ± 3σ, x = 1 (H3L−) / logβx ± 3σ, x = 2 (H4L) / logβx ± 3σ, x = 3 (H5L+) / logβx ± 3σ, x = −1 (HL3−) / logβx ± 3σ, x = −2 (L4−): overall protonation, zero level H2L2−", "source_text": "Results were obtained from […] as overall stability constants (log β values); following the chosen zero level H2L^2−. This zero level H2L^2− was chosen in the calculations to avoid any accumulation of errors of protonation constants at different pH ranges. The log β results for reactions (4) and (5) obtained in the final refinements are listed in Table S3 (see Supporting Information) with error limits (±3σ), number of points/number of titrations and χ^2/Σ statistics.\nThe details of the experiments using (traditional) potentiometric titration are presented in the Supporting Information. The results of the determination by Sirius instrument are shown in the Supporting Information. Potentiometric titrations of the compounds were performed with the PCA200 apparatus (Sirius Analytical Instruments Ltd, Forest Row, East Sussex, UK).\nTable S2. The effect of pH on aqueous solubility (mg/L) of aminoalkylbis(phosphonates) […]\nSolubility (g/L) of Compound\nDetermination of the Protonation Constants Using (traditional) Potentiometric Titration. Reagents:\nAqueous 0.1 M NaOH was prepared from Titrisol ampoules (Merck) and 0.1 M HNO3 from Convol ampoules (BDH). The background solution was prepared by dissolving NaNO3 in deionised water.\nThe NaNO3 and NaCl used in reference electrode were p.a. grade (Merck). The water used in the dilutions and titration solutions was purified with Milli-RO and Milli-Q water purification systems […]\nPotentiometric measurements: The protonation equilibria was studied in aqueous 0.1 M NaNO3 at 25.0 ± 0.1 °C through a series of potentiometric EMF titrations carried out with a Schott-Geräte GmbH […]\nThe cell arrangement for the measurement of the hydrogen ion concentration [H+] was as follows:\n−RE […] equilibrium solution […] GE+ (1) where GE denotes a glass electrode (Schott N2680), and RE is Hg, Hg2Cl2 […] 0.01 M NaCl, 0.09 M NaNO3. Expression (2) is valid assuming that the activity coefficients are constant.\nThe cell parameter E0 and the liquid junction coefficient jH, valid in acidic solutions, were determined for each titration by adding a known amount of HNO3 to the background electrolyte. The value of the liquid junction coefficient jOH, valid in basic solutions, was determined periodically. Only stable EMF readings were used in the calculations.\nDuring the measurements of the protonation equilibria, aqueous 0.1 M NaOH or 0.1 M HNO3 was […]\nFour to eight independent titrations were carried out for each ligand. The number of data points used in […]\nData treatment: Protonation and deprotonation of the ligands were controlled by addition of HNO3 or NaOH. The curves of ZH versus pH were drawn to visualize the experimental data sets. ZH describes the average number of H+ ions added or liberated per mole of ligand and is given by the relationship […]\nwhere CH denotes the total concentration of protons calculated over the zero level H2L2−.\nIn the evaluation of the equilibrium constants, the following two-component equilibria were utilized:\nH2L2− ⇋ H2-xL(2+x)– + xH+ , x = 1–2; β–x (4) xH+ + H2L2− ⇋ Hx+2Lx–2, x = 1–3; βx (5)\nMathematical analysis of the systems involves a search for protonation models and equilibrium constants that best describe the experimental data. The calculations were carried out with the computer […]\n1200). The sample standard deviation Σ and the χ2 statistics used as criteria in the selection of the models were those provided by the program. As a means to improve the confidence level, the error limits for log β values determined in this study are reported as three times the standard deviation estimated by the program.\nFigure S2. ZH vs. pH for protonation of compounds (a) 1; (b) 2; (c) 3; (d) 4 and (e) 5."}, "[6]": {"settings": "pKa1 (H4L + H+ ⇋ H5L+), approximate values"}}}
{"smiles": "NCCCCCCCC(O)(P(=O)(O)O)P(=O)(O)O", "note": "[Compound 5, (8-Amino-1-hydroxyoctylidene)bisphosphonic acid]", "values": [{"measurement": "Onset temperature of first cleavage", "setting": "[1]; TG/DTA, higher crucible", "result": 193, "unit": "°C"}, {"measurement": "Td", "setting": "[1]; TG/DTA, higher crucible", "result": 193, "unit": "°C"}, {"measurement": "Temp. range of 1st cleavage", "setting": "[1]; TG/DTA, higher crucible", "result": "182–212 °C"}, {"measurement": "Onset temperature of first cleavage", "setting": "[1]; TGA 7, shallow crucible", "result": 197, "unit": "°C"}, {"measurement": "Td", "setting": "[1]; TGA 7, shallow crucible", "result": 197, "unit": "°C"}, {"measurement": "Temp. range of 1st cleavage", "setting": "[1]; TGA 7, shallow crucible", "result": "175–222 °C"}, {"measurement": "Td (decomposition onset)", "setting": "[1]", "result": 195, "unit": "°C"}, {"measurement": "solubility at 24 h", "setting": "[2]; 4 °C", "result": 1850, "unit": "µg/mL"}, {"measurement": "solubility at 24 h", "setting": "[2]; 7.6 °C", "result": 1900, "unit": "µg/mL"}, {"measurement": "solubility at 24 h", "setting": "[2]; 21 °C", "result": 2100, "unit": "µg/mL"}, {"measurement": "solubility at 24 h", "setting": "[2]; 30 °C", "result": 2270, "unit": "µg/mL"}, {"measurement": "solubility at 24 h", "setting": "[2]; 40 °C", "result": 2400, "unit": "µg/mL"}, {"measurement": "solubility at 24 h", "setting": "[2]; 50 °C", "result": 3450, "unit": "µg/mL"}, {"measurement": "pKa 2 (Sirius)", "setting": "[3]", "result": 3.10}, {"measurement": "pKa 3 (Sirius)", "setting": "[3]", "result": 6.46}, {"measurement": "pKa 4 (Sirius)", "setting": "[3]", "result": 7.12}, {"measurement": "pKa 5 (Sirius)", "setting": "[3]", "result": 10.77}, {"measurement": "solubility at 30 min", "setting": "[4]", "result": 2100, "unit": "µg/mL"}, {"measurement": "pH of saturated solution", "setting": "[4]", "result": 2.61}, {"measurement": "pKa", "setting": "[5]; [6]", "result": 1.08}, {"measurement": "pKa", "setting": "[5]; pKa2 (H3L− + H+ ⇋ H4L)", "result": 2.52}, {"measurement": "pKa", "setting": "[5]; pKa3 (H2L2− + H+ ⇋ H3L−)", "result": 6.75}, {"measurement": "pKa", "setting": "[5]; pKa4 (HL3− + H+ ⇋ H2L2−)", "result": 10.7}, {"measurement": "pKa", "setting": "[5]; pKa5 (L4− + H+ ⇋ HL3−)", "result": 11.7}, {"measurement": "logβx ± 3σ, x = 1 (H3L−)", "setting": "[5]", "result": "6.75 ± 0.03"}, {"measurement": "logβx ± 3σ, x = 2 (H4L)", "setting": "[5]", "result": "9.27 ± 0.05"}, {"measurement": "logβx ± 3σ, x = 3 (H5L+)", "setting": "[5]", "result": "10.35 ± 0.24"}, {"measurement": "logβx ± 3σ, x = −1 (HL3−)", "setting": "[5]", "result": "−10.67 ± 0.03"}, {"measurement": "logβx ± 3σ, x = −2 (L4−)", "setting": "[5]", "result": "−22.32 ± 0.02"}]}
{"smiles": "NCCCCC(O)(P(=O)(O)O)P(=O)(O)O", "note": "[Compound 3, (5-Amino-1-hydroxypentylidene)bisphosphonic acid]", "values": [{"measurement": "Onset temperature of first cleavage", "setting": "[1]; TG/DTA, higher crucible", "result": 217, "unit": "°C"}, {"measurement": "Td", "setting": "[1]; TG/DTA, higher crucible", "result": 217, "unit": "°C"}, {"measurement": "Temp. range of 1st cleavage", "setting": "[1]; TG/DTA, higher crucible", "result": "198–252 °C"}, {"measurement": "Onset temperature of first cleavage", "setting": "[1]; TGA 7, shallow crucible", "result": 224, "unit": "°C"}, {"measurement": "Td", "setting": "[1]; TGA 7, shallow crucible", "result": 224, "unit": "°C"}, {"measurement": "Temp. range of 1st cleavage", "setting": "[1]; TGA 7, shallow crucible", "result": "195–265 °C"}, {"measurement": "Td (decomposition onset)", "setting": "[1]", "result": 220, "unit": "°C"}, {"measurement": "pKa 2 (Sirius)", "setting": "[3]", "result": 1.92}, {"measurement": "pKa 3 (Sirius)", "setting": "[3]", "result": 2.42}, {"measurement": "pKa 4 (Sirius)", "setting": "[3]", "result": 6.40}, {"measurement": "solubility at 30 min", "setting": "[4]", "result": 4010, "unit": "µg/mL"}, {"measurement": "pH of saturated solution", "setting": "[4]", "result": 2.22}, {"measurement": "pKa", "setting": "[5]; [6]", "result": 0.62}, {"measurement": "pKa", "setting": "[5]; pKa2 (H3L− + H+ ⇋ H4L)", "result": 2.3}, {"measurement": "pKa", "setting": "[5]; pKa3 (H2L2− + H+ ⇋ H3L−)", "result": 6.44}, {"measurement": "pKa", "setting": "[5]; pKa4 (HL3− + H+ ⇋ H2L2−)", "result": 10.8}, {"measurement": "pKa", "setting": "[5]; pKa5 (L4− + H+ ⇋ HL3−)", "result": 12.1}, {"measurement": "logβx ± 3σ, x = 1 (H3L−)", "setting": "[5]", "result": "6.44 ± 0.02"}, {"measurement": "logβx ± 3σ, x = 2 (H4L)", "setting": "[5]", "result": "8.74 ± 0.03"}, {"measurement": "logβx ± 3σ, x = 3 (H5L+)", "setting": "[5]", "result": "9.36 ± 0.51"}, {"measurement": "logβx ± 3σ, x = −1 (HL3−)", "setting": "[5]", "result": "−10.78 ± 0.02"}, {"measurement": "logβx ± 3σ, x = −2 (L4−)", "setting": "[5]", "result": "−22.83 ± 0.03"}]}
{"smiles": "NCCCC(O)(P(=O)(O)O)P(=O)(O)O", "note": "[Compound 2, (4-amino-1-hydroxybutylidene)bisphosphonic acid, reference compound]", "values": [{"measurement": "Onset of 1st cleavage (in parentheses)", "setting": "[1]; TG/DTA, higher crucible", "result": 222, "unit": "°C"}, {"measurement": "Td", "setting": "[1]; TG/DTA, higher crucible", "result": 222, "unit": "°C"}, {"measurement": "Temp. range of 1st cleavage", "setting": "[1]; TG/DTA, higher crucible", "result": "168–252 °C"}, {"measurement": "Onset of 1st cleavage (in parentheses)", "setting": "[1]; TGA 7, shallow crucible", "result": 225, "unit": "°C"}, {"measurement": "Td", "setting": "[1]; TGA 7, shallow crucible", "result": 225, "unit": "°C"}, {"measurement": "Temp. range of 1st cleavage", "setting": "[1]; TGA 7, shallow crucible", "result": "166–253 °C"}, {"measurement": "Td (decomposition onset)", "setting": "[1]", "result": 224, "unit": "°C"}, {"measurement": "pH of saturated solution", "setting": "[4]", "result": 1.94}, {"measurement": "logβx ± 3σ, x = 1 (H3L−)", "setting": "[5]", "result": "6.26 ± 0.01"}, {"measurement": "logβx ± 3σ, x = 2 (H4L)", "setting": "[5]", "result": "8.38 ± 0.02"}, {"measurement": "logβx ± 3σ, x = 3 (H5L+)", "setting": "[5]", "result": "8.98 ± 0.20"}, {"measurement": "logβx ± 3σ, x = −1 (HL3−)", "setting": "[5]", "result": "−10.69 ± 0.01"}, {"measurement": "logβx ± 3σ, x = −2 (L4−)", "setting": "[5]", "result": "−22.82 ± 0.02"}]}
